Test results reported in patent publication US9649295B2, “Chemical inhibitors of soluble adenylyl cyclase (sAC)” (Cornell Research Foundation, Inc., priority 2004, dated 2017).
“Also recorded” adds a separate entry of the source.

Legend:
[1] = system: tmACs; test: adenylyl cyclase activity in forskolin stimulated INS-1E cell lysate; conditions: forskolin (10 μM) stimulated INS-1E
Description: In vitro adenylyl cyclase assays were performed on purified recombinant human sACt protein as previously described in Litvin et al., “Kinetic Properties of “Soluble” Adenylyl Cyclase.

[2] = molecular target: T1, Type II tmAC (tmAC in extracts) (Homo sapiens, UniProt Q08462); test: in vitro cyclase activity in extracts of cells overexpressing Type II tmAC; type: biochemical; conditions: cell printing μM
T1 construct: expressed in transfected cells
T1 sequence (Q08462 whole entry): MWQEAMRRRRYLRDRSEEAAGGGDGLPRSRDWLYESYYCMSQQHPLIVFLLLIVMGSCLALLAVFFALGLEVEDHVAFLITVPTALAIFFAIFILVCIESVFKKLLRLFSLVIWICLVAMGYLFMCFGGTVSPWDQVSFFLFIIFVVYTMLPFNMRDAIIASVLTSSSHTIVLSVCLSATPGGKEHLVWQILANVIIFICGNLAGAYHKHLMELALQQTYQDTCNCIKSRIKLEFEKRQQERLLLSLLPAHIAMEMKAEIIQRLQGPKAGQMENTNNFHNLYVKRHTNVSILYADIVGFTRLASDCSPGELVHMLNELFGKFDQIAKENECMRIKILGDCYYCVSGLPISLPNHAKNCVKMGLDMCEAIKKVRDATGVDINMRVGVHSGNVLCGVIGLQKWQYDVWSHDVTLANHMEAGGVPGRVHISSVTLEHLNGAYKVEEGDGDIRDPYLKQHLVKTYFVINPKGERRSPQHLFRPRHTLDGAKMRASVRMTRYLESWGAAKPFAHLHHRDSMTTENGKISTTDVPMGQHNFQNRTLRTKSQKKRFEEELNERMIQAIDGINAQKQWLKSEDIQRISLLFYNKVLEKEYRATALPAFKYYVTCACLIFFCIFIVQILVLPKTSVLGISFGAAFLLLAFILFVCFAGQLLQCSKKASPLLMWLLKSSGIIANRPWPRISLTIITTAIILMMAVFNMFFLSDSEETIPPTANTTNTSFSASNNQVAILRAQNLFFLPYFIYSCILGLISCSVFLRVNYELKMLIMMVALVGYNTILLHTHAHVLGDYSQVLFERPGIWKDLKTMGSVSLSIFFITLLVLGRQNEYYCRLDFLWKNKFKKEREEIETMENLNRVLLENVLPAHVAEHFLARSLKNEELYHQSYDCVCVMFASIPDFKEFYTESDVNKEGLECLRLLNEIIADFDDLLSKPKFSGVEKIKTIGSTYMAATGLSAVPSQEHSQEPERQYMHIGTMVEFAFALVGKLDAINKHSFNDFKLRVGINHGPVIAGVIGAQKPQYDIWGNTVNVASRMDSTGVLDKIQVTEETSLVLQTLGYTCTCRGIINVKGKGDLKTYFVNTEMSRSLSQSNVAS

[3] = system: INS-1E cells; test: transferrin recycling in INS-1E cells; type: cell-based; conditions: 30 minutes, KH7 30 μM
Description: Briefly, cells (passage 140-150) were plated at 2.5×10^5 cells/well in a 24 well plate and permitted to recover for two days. Cells were glucose starved by incubation for 1 hour in the presence of 2.5 mM glucose KRB medium supplemented with 2 mM sodium bicarbonate, 10 mM Hepes, and 0.1% BSA. After washing, cells were incubated in KRB with either 2.5 mM or 16 mM glucose in the presence of either vehicle control (DMSO or MeOH) or indicated drug. After the indicated time, removed media was cleared of cell debris and secreted insulin was measured by Insulin ELISA kit (Linco Research, St. Charles, Mo., or ALPCO, Windham, N.H.). If cAMP was to be concomitantly measured, cells were pre-treated with IBMX for the final 10 minutes of the glucose starvation and IBMX was included in all subsequent incubations. For the washout experiment, subsequent to initial insulin determination, cells treated with KH7 were placed in fresh KRB (2.5 mM glucose) for an additional hour and insulin release was measured as above in the absence of any added drug. For transferrin recycling, loading of cells with I^125 transferrin was performed during hour incubation in 2.5 mM glucose KRB.

[4] = system: Rap1 activation; test: NGF induced Rap1 activation in PC12 cells; type: cell-based; conditions: 15 minutes, KH7 50 μM
Description: FIG. 18 illustrates that NGF induced Rap1 activation is blocked by KH7 and rescued by membrane permeable cAMP. PC12 cells were stimulated with or without nerve growth factor (NGF) for 15 minutes in the presence or absence of KH7 (50 μM) and 1 mM 8Br-cAMP.

[5] = system: tmACs; test: cAMP forming activity inside cells stimulated with forskolin; type: cell-based; conditions: read-out: in vivo IC50 tmAC (FSK)
[6] = system: PfAC; test: adenylyl cyclase activity in whole cell extract of isolated parasites; type: biochemical, Plasmodium falciparum; conditions: MnCl2 and ATP

CC(Sc1nc2ccccc2[nH]1)C(=O)N/N=C/c1cc(Br)ccc1O (stereo not shown) [KH7]
effect on tmACs [1]: inert towards tmACs | IC50 [2]: > 100 µM | effect on transferrin recycling [3]: unaffected | effect on transferrin recycling ([3]; listed as K17): does not affect | effect on NGF induced Rap1 activation [4]: block NGF induced Rap1 activation; also recorded: blocked | IC50 [5]: > 500 µM | dose response for inhibiting PfAC activity versus killing parasites [6]: equal dose responses at killing parasites and at inhibiting PfAC activity
